Experiments:
[1] = system: CAM; test: Modified Hen Egg Chorioallontoic (HET-CAM) ocular toxicity test; details: 0.3 mL sample on CAM, 5 minutes
Description: The methodology involved using hen's eggs (50-60 g fertile) that were purchased from a local hatchery (Bruce Hatcheries, South Africa) and less than a week old. The eggs were placed in commercial incubators (Surehatch, Brakenfell, South Africa) and rotated every 12 hours. On day 3, a hole was made and the albumin was removed. The eggs were sealed by sterile heated parafilm and left in an equatorial position. On day 5 and everyday thereafter eggs were candled for viability and non-viable ones were discarded. On day 10, a window (2×2 cm) was made and 2-3 mL saline (0.9% NaCl) was added and eggs were returned to the incubator. […] The eggs were then dosed with 0.3 mL of samples and observed for 5 minutes for any effects of injury in accordance with Table 11 and this was noted. Saline was used as a control for comparison purposes. Eggs were scored for severity of any reaction and time taken to occur (Table 11). At the end of the assay the embryos were discarded immediately by placing the eggs into a freezer −80° C. The following features were used for observation of injury: hemorrhage, vascular lysis and coagulation. FIG. 9 depicts the procedure for the test.
The period taken for any untoward reaction to occur was noted and the irritation threshold was determined ([…] concentration of samples required for a minimal reaction to occur). The irritation score was calculated by means of Equation 4.

[2] = as an oral drug; cited from earlier work
[3] = system: Excised rabbit corneas; test: Ex vivo permeation, Franz diffusion cell; format: in vitro ADME; details: excised rabbit cornea
Description: Franz diffusion cell apparatus was used to conduct ex vivo permeation studies. Excised rabbit corneas (11.83±0.04 mm in diameter and area […]) were mounted on the Franz diffusion cell apparatus (Permagear, Arnie Systems, USA) connected to a heating bath system for temperature control. The diffusion cell donor chamber was filled with 2 mL Simulated tear (lacrimal) fluid (SLF) (Gonjari et al., 2009) (which was maintained to simulate tear volume). 12 mL Simulated Aqueous Humor (SAH, pH 7.4, 37° C.) (Giannola et al., 2007) solution was contained in the receptor chamber. The cornea was placed such that the surface was in contact with the receptor solution which was continuously stirred by a magnetic stirrer at 20 rpm to simulate blinking. […] Aliquots of sample were withdrawn from the receptor compartment at regular intervals (30, 60, 120, 180, 240 minutes and 24 hours after insertion) and replaced with an equal volume of dissolution medium. Samples were then subjected to the quantification of drug through spectrophotometric analysis at 295 nm (Hewlett Packard 8453 Spectrophotometer, Germany) to determine the drug release and flux (rate of drug permeation per unit area). Drug flux values were calculated at the steady state per unit area by regression analysis of permeation. Drug flux values were calculated employing Equation 7. […]

## CCCCCCCCCCCCOS(=O)(=O)[O-].[Na+] [SDS, Sodium Dodecyl Sulphate]
[1]
  HET-CAM Inference: Severe
[1]; scale 0-21, mean of 3 values, Sulphate
  IS (irritation score): 10.4
[1]; score 0-3 per Table 11, mean of 3 values
  HET-CAM Score: 2.5

## CC(C)(C)NC[C@H](O)COc1nsnc1N1CCOCC1 [timolol]
[2]
  BCS class: class 1

## Timolol maleate salt [Pure drug dispersion]
[3]; SLF donor, SAH pH 7.4, 37° C. receptor
  steady state drug flux: 0.000378 mg.cm^−2.min^−1
[3]; mean of 3 values
  Kp (permeability co-efficient): 0.00012 cm/min

— patent publication US20150209275A1, “Fast Dissolving Ocular Insert” (UNIVERSITY OF THE WITWATERSRAND, JOHANNESBURG, priority 2012, published 2015)
